Experimental data as given in patent US10479814B2, “Adenosine receptor activation reagent and the uses of thereof” (Zhejiang Subtropical Crops Research Institute, priority 2014, dated 2019).
Entries after “also recorded” stand apart in the source; their conditions may differ.

Columns and labels:
[1] = system: mouse spontaneous activity; assay: mouse spontaneous activity (sedation); assay type: in vivo
Protocol: Male ICR mice were randomly divided into four groups, and adenosine A1R antagonist DPCPX was selected. The mice were divided into solvent group, HEA (15 mg/kg) group, DPCPX (4 mg/kg) and DPCPX+HEA (4 mg/kg+15 mg/kg) group; wherein in DPCPX+HEA group, the mice was peritonealelly injected with the antagonist, after 10 min the HEA was peritoneally injected. After 15 min of drug administration, the mice were put into a single opaque square spontaneous activity box (50 cm×50 cm×40 cm), and foot grating number within 5 min was recorded by video camera. Calculating on the basis of four limbs of the mouse entering the same lattice, as the activity index of the animal.

[2] = system: rat middle cerebral artery distal obstruction cerebral ischemia model; assay: dMCAO cerebral ischemia: TUNEL detection of brain cortex apoptosis; assay type: in vivo
Protocol: Using rat middle cerebral artery distal obstruction cerebral ischemia model. (1) according to rat weight, 10% chloral hydrate (3 ml/kg) was peritoneally injected to anaesthetize. (2) the rat lie on right side and fixed, 1 cm skin incision was cut at connection of inner canthus with external canal, fascia was isolated, muscle tissue, the skull was exposed; (3) a small amount of normal saline was sucked with cotton ball to wipe the skull to ac clear view; (4) fascia was isolated under operating microscope, and the skull was exposed, a hole with diameter of 2 mm circular was drilled at a sute 1/3 of spine; (5) the excess bone debris was washed by a small amount of normal saline, the meninge was push aside, and the middle cerebral artery MCA was exposed; (6) the rat lie in supine position and fixed, an incision was made along middle of throat, and arteria carotis communis CCA on both sides were isolate, pass through with a surgical suture, not ligated temporarily; (7) the MCA was found under operating microscope, burned by a monopolar coagulator, then wash and colled with normal saline; (8) immediately after coagulation, the arteria carotis communis on both sides was ligated, and blocked for 60 min; (9) the wound on head was stitched, after 1 hour the arteria carotis communis on both sides was […], and the skin was stitched, thus the modeling was complete. […]

[3] = system: mouse PD model induced by MPTP; assay: MPTP induced mouse PD model: TH positive cells in substantia nigra; assay type: in vivo; conditions: MPTP 30 mg/kg mice; Cordyceps cicadae extract 1500 mg/kg; HEA 10 mg/kg ip; 14 days
Protocol: 24±1 g male C57BL/6 mice were randomly divided into six groups: control group, model group, Cordyceps cicadae extract group (1500 mg/kg) (the extract method can refer to Example 3), HEA (5 mg/kg, 10 mg/kg, 15 mg/kg) group. Using mouse PD model induced by 1-methyl-4-phenyl-[…] (MPTP), in Cordyceps cicadae crude extract group and HEA with different concentration group were respectively peritoneal injected for consecutive 14 days, and at Day 11, before 1 hour of drug administration, MPTP 30 mg/kg was peritoneally injected, for consecutive 4 days, after one day after the last administration, a behavior test of pole-climbing ability was conducted, after 4 days the rat wad killed by puling neck and the striatum was removed. […]
After completion of behaviour detection, the heart was perfuse with 4% paraformaldehyde and the brain was removed, fixed, desiccated, embedded, and different parts in substantia nigra region were removed for coronal sectioned, tyrosine hydroxylase was used as specific marker for the neuron. The primary antibody is monoclonal mouse TH antibody (1;1000, Sigma), and the secondary antibody is Alexa fluor 488 fluorescence labeling goat anti-mouse (1;1000, Molecular Probes). Taking photo by a fluorescence microscope, and the TH positive cell in the substantia nigra were counted.

[4] = target: T1, rat cerebral cortex adenosine A1 receptor (Rattus norvegicus, UniProt P25099); assay: adenosine A1 receptor ligand binding test ([3H]DPCPX)
T1 construct: DPCPX; from tissue; host or cells: Wistar rat cerebral cortex
T1 sequence (P25099 1-326): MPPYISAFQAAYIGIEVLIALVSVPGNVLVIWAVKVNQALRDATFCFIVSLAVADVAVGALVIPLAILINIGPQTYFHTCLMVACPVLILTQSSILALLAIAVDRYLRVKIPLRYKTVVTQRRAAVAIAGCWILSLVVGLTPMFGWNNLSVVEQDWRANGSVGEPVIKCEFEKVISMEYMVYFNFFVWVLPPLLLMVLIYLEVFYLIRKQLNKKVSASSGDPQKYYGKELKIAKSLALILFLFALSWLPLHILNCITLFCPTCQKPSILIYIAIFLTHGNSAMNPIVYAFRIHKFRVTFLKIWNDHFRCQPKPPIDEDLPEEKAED

[5] = system: rat middle cerebral artery distal obstruction cerebral ischemia model; assay: dMCAO cerebral ischemia: infarct size by TTC staining; assay type: in vivo; conditions: HEA 7.5 mg/kg ip, 24 hours after modeling, vs model group
[6] = system: mouse PD model induced by MPTP; assay: MPTP induced mouse PD model: pole-climbing method; assay type: in vivo; conditions: MPTP 30 mg/kg mice; Cordyceps cicadae extract 1500 mg/kg; HEA 10 mg/kg ip; 14 days
Protocol: 24±1 g male C57BL/6 mice were randomly divided into six groups: control group, model group, Cordyceps cicadae extract group (1500 mg/kg) (the extract method can refer to Example 3), HEA (5 mg/kg, 10 mg/kg, 15 mg/kg) group. Using mouse PD model induced by 1-methyl-4-phenyl-[…] (MPTP), in Cordyceps cicadae crude extract group and HEA with different concentration group were respectively peritoneal injected for consecutive 14 days, and at Day 11, before 1 hour of drug administration, MPTP 30 mg/kg was peritoneally injected, for consecutive 4 days, after one day after the last administration, a behavior test of pole-climbing ability was conducted, after 4 days the rat wad killed by puling neck and the striatum was removed. The control group was given same amount of normal saline, the model group at Day 11, one hour before the normal saline was given, MPTP 30 mg/kg was peritoneally injected, for four consecutive days.
Heading down, the mouse was placed onto top of a wooden pole with a length of 50 cm, diameter of 10 mm, the time for the mouse clime from top to bottom along the pole was record, the time difference between before and after the modeling was calculate, and analyzed statistically.

[7] = target: T2, rat striatum adenosine A2A receptor (Rattus norvegicus, UniProt P30543); assay: adenosine A2A receptor ligand binding test ([3H]MSX-2); conditions: rat striatum homogenate, 0.75 nM [3H]MSX-2, 25° C. 30 min; read-out: Ki value of competitive binding with the adenosine A2A receptor
T2 construct: from tissue; host or cells: Wistar rat striatum
T2 sequence (P30543 whole entry): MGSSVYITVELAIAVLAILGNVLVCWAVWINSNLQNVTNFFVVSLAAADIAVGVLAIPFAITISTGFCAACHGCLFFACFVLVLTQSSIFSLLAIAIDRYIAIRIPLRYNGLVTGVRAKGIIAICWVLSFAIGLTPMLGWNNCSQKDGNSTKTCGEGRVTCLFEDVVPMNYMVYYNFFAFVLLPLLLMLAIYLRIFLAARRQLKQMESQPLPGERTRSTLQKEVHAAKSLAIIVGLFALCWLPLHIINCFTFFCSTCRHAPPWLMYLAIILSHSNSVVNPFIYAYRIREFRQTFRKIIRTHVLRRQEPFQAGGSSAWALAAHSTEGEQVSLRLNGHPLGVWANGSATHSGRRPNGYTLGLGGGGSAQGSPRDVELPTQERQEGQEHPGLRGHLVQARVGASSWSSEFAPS
Protocol: Using Wistar rat, head was cut and the brain was removed, and cerebral cortex and striatum were separated, respectively weighed, added into 10 fold volume of ice-cooled Tris-HCL buffer solution (50 mM, PH7.5) according to 1:10, the tissue is homogenized, after the suspension was centrifuged the supernatant was discarded, the above-described solution wash was repeated for 3 times, centrifuged again and the supernatant was discarded, the precipitate was again mixed in 50 mM Tris-HCL buffer solution, the protein concentration in rat cerebral cortex determined by Coomassie Brilliant Blue Method (Bradford method) was 0.8 mg/ml, the protein content in rat striatum brain tissue homogenate was 1.3 mg/ml.
To a detect tube the HEA with different concentration (10^−9, 10^−8, 10^−7, 10^−6, 10^−5 mol/L) were added, mixed well, then incubated at 25° C. in water bath on shaking table for 30 min, the reaction liquid was drawn by a cell collector, passed the GF/B glass filter membrane (Watman), reaction was terminated, washed 3 times with Tris-HCl buffer solution, each time 3 ml, the filter membrane was removed and dried, then put into a scintillation vial containing 4 ml of scintillation solution to determine radioactivity. A radioactivity count to the filter membrane was conducted by a scintillation counter.

Row | SMILES | effect of DPCPX on sedation of the HEA ([1]; DPCPX 4 mg/kg ip 10 min before HEA 15 mg/kg) | effect of DPCPX on brain protective effect of HEA (TUNEL) ([2]; DPCPX 1 mg/kg ip + HEA 7.5 mg/kg ip) | spontaneous activity number within 5 min ([1]; normal mouse, HEA 15 mg/kg ip, 15 min after administration, vs solvent group) | number of the TH positive cells in substantia nigra [3] | affinity to adenosine A1 receptor relative to adenosine A2A receptor ([4]; A1 versus A2A) [fold] | selectivity to A1 receptor (in words) ([4]; A1 versus A2A binding) | Ki ([4]; rat cerebral cortex homogenate, 0.2 nM [3H]DPCPX, 25° C. 30 min, read-out: Ki value of competitive binding with the adenosine A1 receptor) [µM] | apoptosis rate of cerebral cortex infarction ischemic penumbra (TUNEL) ([2]; dMCAO rat, HEA 7.5 mg/kg ip, vs model group) | infarct size (TTC staining) [5] | multilimb coordination ability (pole-climbing) [6] | Ki [7] [µM]
1 | CCCn1c(=O)c2[nH]c(C3CCCC3)nc2n(CCC)c1=O [DPCPX, reference compound] | sedation of the HEA is significantly antagonized | blocking brain protective effect of the HAE | – | – | – | – | – | – | – | – | –
2 | OCCNc1ncnc2c1ncn2[C@@H]1O[C@H](CO)[C@@H](O)[C@H]1O [HEA, N(6)-(2-hydroxyethyl)-adenosine] | – | – | significant; also recorded: significantly reduce spontaneous activity number of normal mouse within 5 min | increase number of the TH positive cells | 100 | high selectivity to A1 receptor | 0.0895 | significantly reduced; also recorded: significantly reduce the apoptosis rate of rat cerebral cortex infarction ischemic penumbra | significantly reduce cerebral infarction area; also recorded: significantly reduce the infarct size of the injured brain | improve multilimb coordination ability of mouse to different degree | ~8.92
